Legend:
Type in all cases: functional
Amaranthus retroflexus [1] = assay: Pre-emergence herbicidal activity against Amaranthus retroflexus assessed as inhibition of plant fresh weight growth at 150 g/ha applied to soil through spraying under greenhouse conditions; conditions: read-out: GI
Echinochloa crus-galli [2] = assay: Post-emergence herbicidal activity against Echinochloa crus-galli (barnyard grass) seedlings assessed as inhibition of plant fresh weight growth at 150 g/ha applied through spraying under greenhouse conditions; conditions: read-out: GI
Amaranthus retroflexus [3] = assay: Post-emergence herbicidal activity against Amaranthus retroflexus seedlings assessed as inhibition of plant fresh weight growth at 150 g/ha applied through spraying under greenhouse conditions; conditions: read-out: GI
[4] = tested on: Brassica rapa subsp. oleifera; assay: Herbicidal activity against Brassica rapa subsp. oleifera assessed as inhibition of root growth at 10 ug/ml after 65 hr by rape cup test; conditions: read-out: GI
[5] = tested on: Brassica rapa subsp. oleifera; assay: Pre-emergence herbicidal activity against Brassica rapa subsp. oleifera assessed as inhibition of plant fresh weight growth at 150 g/ha applied to soil through spraying under greenhouse conditions; conditions: read-out: GI
Echinochloa crus-galli [6] = assay: Herbicidal activity against Echinochloa crus-galli (barnyard grass) plants assessed as inhibition of seedling growth at 100 ug/ml after 65 hr by barnyard cup test; conditions: read-out: GI
Echinochloa crus-galli [7] = assay: Pre-emergence herbicidal activity against Echinochloa crus-galli (barnyard grass) assessed as inhibition of plant fresh weight growth at 150 g/ha applied to soil through spraying under greenhouse conditions; conditions: read-out: GI
[8] = tested on: Brassica rapa subsp. oleifera; assay: Post-emergence herbicidal activity against Brassica rapa subsp. oleifera seedlings assessed as inhibition of plant fresh weight growth at 150 g/ha applied through spraying under greenhouse conditions; conditions: read-out: GI
[9] = tested on: Brassica rapa subsp. oleifera; assay: Herbicidal activity against Brassica rapa subsp. oleifera assessed as inhibition of root growth at 1000 ug/ml after 65 hr by rape cup test; conditions: read-out: GI
[10] = tested on: Brassica rapa subsp. oleifera; assay: Herbicidal activity against Brassica rapa subsp. oleifera assessed as inhibition of root growth at 100 ug/ml after 65 hr by rape cup test; conditions: read-out: GI
Digitaria sanguinalis [11] = assay: Pre-emergence herbicidal activity against Digitaria sanguinalis (hairy crabgrass) assessed as inhibition of plant fresh weight growth at 150 g/ha applied to soil through spraying under greenhouse conditions; conditions: read-out: GI
Echinochloa crus-galli [12] = assay: Herbicidal activity against Echinochloa crus-galli (barnyard grass) plants assessed as inhibition of seedling growth at 1000 ug/ml after 65 hr by barnyard cup test; conditions: read-out: GI
Digitaria sanguinalis [13] = assay: Post-emergence herbicidal activity against Digitaria sanguinalis (hairy crabgrass) seedlings assessed as inhibition of plant fresh weight growth at 150 g/ha applied through spraying under greenhouse conditions; conditions: read-out: GI
[14] = tested on: Brassica rapa subsp. oleifera; assay: Post-emergence herbicidal activity against Brassica rapa subsp. oleifera seedlings assessed as inhibition of plant fresh weight growth at 1500 g/ha applied through spraying under greenhouse conditions; conditions: read-out: GI
[15] = tested on: Brassica rapa subsp. oleifera; assay: Pre-emergence herbicidal activity against Brassica rapa subsp. oleifera assessed as inhibition of plant fresh weight growth at 1500 g/ha applied to soil through spraying under greenhouse conditions; conditions: read-out: GI
Echinochloa crus-galli [16] = assay: Herbicidal activity against Echinochloa crus-galli (barnyard grass) plants assessed as germination rate at 1000 ug/ml measured on second day post dose (reference value: 100%)
Amaranthus retroflexus [17] = assay: Pre-emergence herbicidal activity against Amaranthus retroflexusassessed as inhibition of plant fresh weight growth at 1500 g/ha applied to soil through spraying under greenhouse conditions; conditions: read-out: GI
Echinochloa crus-galli [18] = assay: Post-emergence herbicidal activity against Echinochloa crus-galli (barnyard grass) seedlings assessed as inhibition of plant fresh weight growth at 1500 g/ha applied through spraying under greenhouse conditions; conditions: read-out: GI
Paraixeris denticulata [19] = assay: Herbicidal activity against Paraixeris denticulata assessed as germination rate at 1000 ug/ml measured on first day post dose (reference value: 30.8 +/- 1.2%)
Paraixeris denticulata [20] = assay: Herbicidal activity against Paraixeris denticulata assessed as germination rate at 1000 ug/ml measured on second day post dose (reference value: 76.7 +/- 0.3%)
Digitaria sanguinalis [21] = assay: Post-emergence herbicidal activity against Digitaria sanguinalis (hairy crabgrass) seedlings assessed as inhibition of plant fresh weight growth at 1500 g/ha applied through spraying under greenhouse conditions; conditions: read-out: GI
Paraixeris denticulata [22] = assay: Herbicidal activity against Paraixeris denticulata assessed as germination rate at 1000 ug/ml measured on fourth day post dose (reference value: 100%)
Amaranthus retroflexus [23] = assay: Post-emergence herbicidal activity against Amaranthus retroflexus seedlings assessed as inhibition of plant fresh weight growth at 1500 g/ha applied through spraying under greenhouse conditions; conditions: read-out: GI
Echinochloa crus-galli [24] = assay: Herbicidal activity against Echinochloa crus-galli (barnyard grass) plants assessed as germination rate at 1000 ug/ml measured on first day post dose (reference value: 49.1 +/- 1.6%)
Paraixeris denticulata [25] = assay: Herbicidal activity against Paraixeris denticulata assessed as germination rate at 1000 ug/ml measured on third day post dose (reference value: 97.4 +/- 0.6%)
Echinochloa crus-galli [26] = assay: Pre-emergence herbicidal activity against Echinochloa crus-galli (barnyard grass) assessed as inhibition of plant fresh weight growth at 1500 g/ha applied to soil through spraying under greenhouse conditions; conditions: read-out: GI
Digitaria sanguinalis [27] = assay: Pre-emergence herbicidal activity against Digitaria sanguinalis (hairy crabgrass) assessed as inhibition of plant fresh weight growth at 1500 g/ha applied to soil through spraying under greenhouse conditions; conditions: read-out: GI
Digitaria sanguinalis [28] = assay: Herbicidal activity against Digitaria sanguinalis (hairy crabgrass) assessed as germination rate at 1000 ug/ml measured on third day post dose (reference value: 100%)
Digitaria sanguinalis [29] = assay: Herbicidal activity against Digitaria sanguinalis (hairy crabgrass) assessed as germination rate at 1000 ug/ml measured on second day post dose (reference value: 100%)
Digitaria sanguinalis [30] = assay: Herbicidal activity against Digitaria sanguinalis (hairy crabgrass) assessed as germination rate at 1000 ug/ml measured on first day post dose (reference value: 0%)

SMILES | inhibition of growth at 10 µg/mL [4] [%] | inhibition of growth at 100 µg/mL (Echinochloa crus-galli [6]) [%] | inhibition of growth at 1000 µg/mL [9] [%] | inhibition of growth at 100 µg/mL [10] [%] | inhibition of growth at 1000 µg/mL (Echinochloa crus-galli [12]) [%] | inhibition of growth at 1500 g/ha [14] [%] | inhibition of growth at 1500 g/ha [15] [%] | Activity (Echinochloa crus-galli [16]) [%] | inhibition of growth at 1500 g/ha (Amaranthus retroflexus [17]) [%] | inhibition of growth at 1500 g/ha (Echinochloa crus-galli [18]) [%] | Activity (Paraixeris denticulata [19]) [%] | Activity (Paraixeris denticulata [20]) [%] | inhibition of growth at 1500 g/ha (Digitaria sanguinalis [21]) [%] | Activity (Paraixeris denticulata [22]) [%] | inhibition of growth at 1500 g/ha (Amaranthus retroflexus [23]) [%] | Activity (Echinochloa crus-galli [24]) [%] | Activity (Paraixeris denticulata [25]) [%] | inhibition of growth at 1500 g/ha (Echinochloa crus-galli [26]) [%] | inhibition of growth at 1500 g/ha (Digitaria sanguinalis [27]) [%] | other results
CS(=O)(=O)c1ccc(C(=O)C2C(=O)CCCC2=O)c([N+](=O)[O-])c1 [MESOTRIONE] | 80.3 | 90.5 | 93.4 | 89.7 | 96.1 |  |  |  |  |  |  |  |  |  |  |  |  |  |  | inhibition of growth at 150 g/ha (Amaranthus retroflexus [1]): 97.9%; inhibition of growth at 150 g/ha (Echinochloa crus-galli [2]): 86.7%; inhibition of growth at 150 g/ha (Amaranthus retroflexus [3]): 100%; inhibition of growth at 150 g/ha [5]: 97.8%; inhibition of growth at 150 g/ha (Echinochloa crus-galli [7]): 92.5%; inhibition of growth at 150 g/ha [8]: 100%; inhibition of growth at 150 g/ha (Digitaria sanguinalis [11]): 100%; inhibition of growth at 150 g/ha (Digitaria sanguinalis [13]): 100%
COc1cc(OC)c2c(c1)O/C(=C\c1ccccc1F)C2=O |  | 15 | 86.8 | 74.7 | 45 | 0 | 0 | 100 | 10 | 6.5 | 17.8 | 58.9 | 0 | 100 | 40.1 | 11.4 | 76.7 | 15 | 0 | 
COc1cc(OC)c2c(c1)O/C(=C\c1ccccc1)C2=O | 81.3 | 0 | 91.4 | 88.5 | 20 | 15 | 0 | 100 | 0 | 0 | 2.5 | 75.7 | 0 | 100 | 42.2 | 18.8 | 95 | 10 | 0 | Activity (Digitaria sanguinalis [28]): 100%; Activity (Digitaria sanguinalis [29]): 22.5%; Activity (Digitaria sanguinalis [30]): 0%
CCOc1cc(OCC)c2c(c1)O/C(=C\c1ccc(OCc3ccccc3)c(OC)c1)C2=O |  | 15 | 72.6 | 79.2 | 26.7 | 0 | 0 |  | 5 | 7.9 |  |  | 5 |  | 0 |  |  | 0 | 10 | 
